One block for each compound: values may come before it.
Key:
[1] = system: breast cancer cell line MDA-MB-361; assay: Cell proliferation inhibition assay, MDA-MB-361 (Cell Titer-Glo, 5 days); format: cell-based; details: Homo sapiens, 120 h; MDA-MB-361, 5 days; read-out: IC50 MD-MBA-361
Source text: (§1) This assay was used to study the effect of PARP-1 inhibitor alone for tumor suppression. Breast cancer susceptibility genes BRCA1 and BRCA2 play an important role in homologous recombination DNA repair. BRCA-mutant (or deficient) cells represent homologous recombination repair defect, if PARP-mediated DNA repair is inhibited at the same time, DNA damage in cells may be increased, resulting in chromatin abnormality or even cell death.
(§2) BRCA-mutant (or deficient) human prostatic cancer cell line DU-145, lung adenocarcinoma cell line SW-1271, as well as breast cancer cell lines MDA-MB-436 and MDA-MB-361 were selected for the assay, PARP inhibitor was used alone to evaluate its damage effect on cells. The inhibition effect of the compound was expressed by IC50.
(§3) Prostatic cancer cell line DU-145 grown in EMEM supplement with 10% FBS was seeded in 96 well tissue culture plates (2000 cells/well). Lung adenocarcinoma cell line SW-1271 grown in L15 supplement with 10% FBS was seeded in 96 well tissue culture plates (4000 cells/well), and breast cancer cell line MDA-MB-361 grown in L15 supplement with 20% FBS was seeded in 96 well tissue culture plates (4000 cells/well). Test compounds (10 mM stock solution in DMSO) and reference compound staurosporine (1 mM stock solution in DMSO) were diluted by DMSO for 200 times to obtain the desired final concentration. 0.5 ul compound dilutions were directly added to the cells in 96 well plates, and the cells were incubated at 37° C. for 5 days. HPE control wells were added 1 uM staurosporine dilution, while ZPE wells were added 0.5% DMSO. After 5 days plates were equilibrated to room temperature and 50 ul of Cell Titer-Glo Reagent (Promega) was added to the culture wells. The plates were agitated briefly and luminescence signal was measured with Envision (PerkinElmer). […] IC50 values were calculated with Prism software (Graph Pad, San Diego, Calif., USA) for both test compounds and reference compound staurosporine.

[2] = system: lung adenocarcinoma cell line SW-1271; assay: Cell proliferation inhibition assay, SW-1271 (Cell Titer-Glo, 5 days); format: cell-based; details: Homo sapiens, SW1271, 120 h; SW-1271, 5 days
Source text: as §1, §2, §3

[3] = system: prostatic cancer cell line DU-145; assay: Cell proliferation inhibition assay, DU-145 (Cell Titer-Glo, 5 days); format: cell-based; details: Homo sapiens, 120 h; DU-145, 5 days
[4] = Pharmacokinetic test in male SD rats, tail vein injection; format: in vivo, rat; details: for AUC(0-t) / MRT / clearance / half-life / Vd: rat, plasma, iv, 15 mg/kg tail vein injection; for Vd: read-out: Vdss
Protocol: Male SD rats were used as experimental animals in this test. […] LC-MS/MS method was used to test blood drug concentration, and Winnonlin 6.1 software was used to calculate pharmacokinetic parameters to study and evaluate the pharmacokinetic properties.
12 male SD rats weighed 180-260 g, purchased from Vital River Laboratory Animal Technology Co., Ltd.
0.2 mL blood was collected through jugular vein before dosing and at 5 min, 15 min, 30 min, 1 h, 2 h, 4 h, 8 h, 12 h and 24 h after the dosing, respectively, and put into heparinized tubes. The samples were centrifuged for 10 min at 5500 rpm to separate plasma, and stored at −30° C.
(§4) An aliquot of 20 μL of plasma sample was added with 200 μL acetonitrile (containing 5.00 ng/mL verapamil and 50.0 ng/mL glibenclamide as internal standards). The mixture was vortexed for 4 min, and then centrifuged at 3700 rpm for 18 min. An aliquot of 70 μL supernatant was added into 70 μL water, and then vortexed for 4 min. Finally, 10 μL of the mixture was injected into the LC-MS/MS system for analysis.
as §4, with “30” for “20”, “150” for “200”, “5” for “4”
Winnonlin 6.1 software was used to calculate pharmacokinetic parameters.

[5] = Solubility test (thermodynamic solubility in pH 7.4 phosphate buffer, HPLC); format: physicochemical
Protocol: In this test, excess amount of test sample was added into pH=7.4 phosphate buffer. Ultrasonic was performed for 30 min until the drug no longer dissolved. The solution was continuously shaked for 24 hours at a constant temperature of 25° C. to achieve a thermodynamic equilibrium of compound, and then the solution was filtrated to get filtrate. Quantitative analysis of compound in filtrate using external standard method is performed according to “Appendix VD High Performance Liquid Chromatography, Part II of Pharmacopeia 2010,” and the sample thermohynamic solubility in pH=7.4 phosphate buffer was determined.
Agilent 1200 LC, Phenomen C18 column (4.6 mm*150 mm, […]), mobile phase: methanol:water (60:40), flow rate: 1 mL/min, column temperature: 25° C., wave length: 230 nm, injection volume: 10 μL
About 30 mg test compound was put in a 10 mL volumetric flask, about 8 mL pH=7.4 phosphate buffer was added and ultrasonic was performed for 30 min, and the solution was shaked for 24 hours in a shaker at a constant temperature of 25° C. The solution was settled for half an hour under 25° C., filtered with 0.45 μm hydrophilic filter. The filtrate was used as test sample. […]
The test solution was injected for three times according to the above chromatographic conditions. The peak area was measured to calculate the corresponding concentration. […]

[6] = system: rat model of focal cerebral ischemia; details: i.p. 10 mg/kg two hours prior to and two hours after initiation of ischemia; cited from earlier work
[7] = system: mice following a two hour occlusion of the MCA; details: intracerebroventricular administration; cited from earlier work

SMILES: O=C(c1cc(Cc2n[nH]c(=O)c3ccccc23)ccc1F)N1CCN(C(=O)C2CC2)CC1 [AZD-2281, olaparib]
IC50 [3]: 65000 nM | IC50 [1]: > 10000 nM | exposure ([4]; 15 mg/kg i.v.): low exposure | metabolic stability ([4]; 15 mg/kg i.v.): poor metabolic stability | AUC(0-t) [4]: 6440 ng·h/mL | MRT [4]: 19.8 min | clearance [4]: 39.1 mL/min/kg | half-life [4]: 40.9 min | Vd [4]: 0.766 L/kg | IC50 [2]: 17400 nM

SMILES: O=C1NCCc2c(OCCCCN3CCCCC3)cccc21 [DPQ, 3,4-dihydro-5-[4-(1-piperidinyl)butoxy]-1 (2H)-isoquinolinone]
reduction in infarct volume [6]: 54%

SMILES: NC(=O)c1cccc(N)c1 [Compound 3-AB, 3-aminobenzamide]
decrease in infarct volume [7]: 47%

Now from value to compound:

IC50 [1]: 1900 nM | IC50 [2]: 770 nM
SMILES: O=C(c1cc(Oc2n[nH]c(=O)c3ccccc23)ccc1F)N1CCN(C(=O)C2CCC(F)(F)CC2)CC1 [Compound 107, 4-(3-(4-(4,4-difluorocyclohexanecarbonyl)piperazine-1-carbonyl)-4-fluorophenoxy)2H-phthalazin-1-one]

IC50 [3]: 3700 nM | IC50 [1]: 2400 nM | IC50 [2]: 1500 nM
SMILES: O=C(c1cc(Oc2n[nH]c(=O)c3ccccc23)ccc1F)N1CCN(C(=O)N2CCCCC2)CC1 [Compound 85, 4-(4-fluoro-3-(4-(piperidine-1-carbonyl)piperazine-1-carbonyl)phenoxy)-2H-phthalazin-1-one]

IC50 [3]: 2700 nM | water solubility relative to AZD-2281 [5]: enhanced by almost twice | pharmacokinetic properties relative to AZD-2281 ([4]; 15 mg/kg i.v.): significantly superior to AZD-2281 | AUC(0-t) [4]: 10100 ng·h/mL | MRT [4]: 22.4 min | clearance [4]: 28 mL/min/kg | half-life [4]: 185 min | Vd [4]: 0.665 L/kg | IC50 [2]: 1600 nM
SMILES: CN(C)C1(C(=O)N2CCN(C(=O)c3cc(Oc4n[nH]c(=O)c5ccccc45)ccc3F)CC2)CC1 [Compound 124, 4-(3-(4-(1-(dimethylamino)cyclopropanecarbonyl)piperazine-1-carbonyl)-4-fluorophenoxy)2H-phthalazin-1-one]

IC50 [3]: 1900 nM | IC50 [1]: 4000 nM | IC50 [2]: 1100 nM
SMILES: CN(C)C1(C(=O)N2CCN(C(=O)c3cc(Oc4n[nH]c(=O)c5ccccc45)ccc3F)CC2)CCC1 [Compound 126, 4-(3-(4-(1-(dimethylamino)cyclobutanecarbonyl)piperazine-1-carbonyl)-4-fluorophenoxy)2H-phthalazin-1-one]

— patent US9718787B2, “Poly (ADP-ribose) polymerase inhibitor” (CHENGDU DI'AO PHARMACEUTICAL GROUP CO., LTD., priority 2011, dated 2017)
